Measured values: patent publication US11266715B2, “C3A receptor agonists for use against ischemic brain injury, stroke, traumatic brain injury, spinal cord injury and neurodegenerative disorders” (priority 2016, dated 2022)

Test system: mice subjected to neonatal HI injury
Test: Object recognition test after neonatal HI injury, 3 days intranasal treatment
Assay type: in vivo, mouse
Procedure: In the short-term study (3 days of intranasal treatment), 3 groups of WT mice were used; animals subjected to neonatal HI injury and treated with either C3a (HI-C3a, n=18) or PBS (HI-PBS, n=18) and sham-operated animals treated with PBS (SHAM-PBS, n=19). These mice were tested in an open field and object recognition test (ORT) at P50-P54 and brains were collected at P55 (FIG. 8A).
Neonatal HI injury was induced on postnatal day 9 (P9), as previously described with modifications for mice (Hedtjärn et al., 2002; Rice et al., 1981; Sheldon et al., 1998). Mice were anesthetized with 3.5% isoflurane (Baxter Medical, Kista, Sweden) for induction and 1.5% thereafter, in 1:1 oxygen and nitrous oxide. The left common carotid artery was dissected and permanently ligated with a prolene suture (6.0). The incision was closed and infiltrated with lidocaine (Xylocain®, Astra Zeneca, Gothenburg, Sweden). Mice were returned to the dam for 1 hour and then placed in a chamber with humidified air at 36° C. for 10 min, then exposed to humidified 10% oxygen in nitrogen for 30 min at 36° C., and then kept in humidified air at 36° C. for 10 min before being returned to the dam. Sham animals were subjected to an incision in the neck on P9. These pups were also removed from the dam for the time duration that injured animals stayed in the chamber, but remained instead in a warming tray at 36° C. under normal oxygen conditions. At postnatal day 21 (P21) mice were weaned and group housed with same sex littermates.
Purified human C3a (Complement Technology Inc., Tyler, Tex., USA) was diluted in sterile phosphate buffered saline (PBS) to a concentration of 200 nM, and a total of 8 μl i.e. […] (4 μl/nostril; corresponding to ca. 2.56 μg/kg body weight) of peptide solution or PBS was given intranasally to awake and hand-restrained mice held in a supine position. Solutions were administered through a pipette tip, drop-wise in 2 μl-portions divided by 1 min intervals to allow for absorption. […] C3a or PBS was given every 24 hours for three (short-term study) or seven (long-term study) days starting 1 h after HI induction, i.e. between P9 and P11 or P9 and P15, respectively. Mice in each litter were randomly assigned to C3a or PBS treatment. Sham animals received PBS. The investigators carrying out behavioural studies and analysing data were blinded to treatment group.
The object recognition test is based on the innate preference of mice to explore a novel object rather than a familiar one. Therefore, animals that remember the familiar object will spend more time exploring the novel object (Leger et al., 2013). From 3 days before starting the test, mice were daily handled for 2 min to minimize the possible stress due the researcher interaction. All experiments were performed at the same time of the day, between 9 am and […], and inside of a plastic box of 50×50×50 cm dimensions where the light intensity was dim and equal in all parts of the apparatus. […] Prior to the familiarization session, during which two identical objects were introduced, mice were habituated to the apparatus for 10 min during 3 consecutive days. Activity on the first habituation day was recorded as an open field test to assess locomotor and exploratory activities. During the familiarization session, two identical 250 ml bottles filled with shredded paper were placed at an equal distance from the arena walls (approximately 5 cm). […]

C3a: Purified human C3a peptide (Complement Technologies), C3a receptor agonist, amino acid sequence SEQ ID NO: 1
time exploring novel vs familiar object, long-term memory (24 h) (C3a treated mice p<0.05): significantly longer time exploring the novel compared to familiar object | exploratory behavior in the familiarization phase (intranasal C3a 3 days from 1 h post-HI): not altered | time exploring the novel object, short-term memory (6 h), vs PBS-treated mice post-HI (p<0.01): spent more time exploring the novel object | total object exploration time, long-term memory (24 h), vs PBS (p<0.05): longer | total object exploration time, short-term memory (6 h), vs PBS (p<0.05): longer total object exploration time
